Measured values as given in PubChem BioAssay (NCI).
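Grown in 96-well plates, cells were treated for 48 hours with each compound at five concentrations. Insufficient inhibition: endpoint recorded as highest concentration tested. The concentration for full growth arrest is given as TGI.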

Legend:
Assay in all cases: NCI tumour cell line growth inhibition, 48 h
SW-620 colon = tested on: SW-620 colon
786-0 renal = tested on: 786-0 renal
MOLT-4 leukemia = tested on: MOLT-4 leukemia
NCI-H226 lung = tested on: NCI-H226 lung
SK-MEL-5 melanoma = tested on: SK-MEL-5 melanoma
RPMI-8226 leukemia = tested on: RPMI-8226 leukemia
ACHN renal = tested on: ACHN renal
KM20L2 colon = tested on: KM20L2 colon
HCT-15 colon = tested on: HCT-15 colon
DMS 273 small cell lung = tested on: DMS 273 small cell lung
SR leukemia = tested on: SR leukemia
IGROV1 ovarian = tested on: IGROV1 ovarian
NCI-H460 lung = tested on: NCI-H460 lung
K-562 leukemia = tested on: K-562 leukemia
A549 NSCLC = tested on: A549 NSCLC
SNB-19 CNS = tested on: SNB-19 CNS
HOP-62 NSCLC = tested on: HOP-62 NSCLC
NCI-H522 lung = tested on: NCI-H522 lung
OVCAR-5 ovarian = tested on: OVCAR-5 ovarian
CCRF-CEM leukemia = tested on: CCRF-CEM leukemia
SNB-78 CNS = tested on: SNB-78 CNS
SN12C renal = tested on: SN12C renal
KM12 colon = tested on: KM12 colon
EKVX NSCLC = tested on: EKVX NSCLC
HCT-116 colon = tested on: HCT-116 colon
SK-MEL-28 melanoma = tested on: SK-MEL-28 melanoma
SNB-75 CNS = tested on: SNB-75 CNS
MALME-3M melanoma = tested on: MALME-3M melanoma
CAKI-1 renal = tested on: CAKI-1 renal
UO-31 renal = tested on: UO-31 renal
HCC-2998 colon = tested on: HCC-2998 colon
DLD-1 colon = tested on: DLD-1 colon
NCI-H23 lung = tested on: NCI-H23 lung
COLO 205 colon = tested on: COLO 205 colon
M14 melanoma = tested on: M14 melanoma
SK-MEL-2 melanoma = tested on: SK-MEL-2 melanoma
SF-295 CNS = tested on: SF-295 CNS
LOX IMVI melanoma = tested on: LOX IMVI melanoma
HT29 colon = tested on: HT29 colon
U251 CNS = tested on: U251 CNS
SF-268 CNS = tested on: SF-268 CNS
SF-539 CNS = tested on: SF-539 CNS
OVCAR-8 ovarian = tested on: OVCAR-8 ovarian
UACC-62 melanoma = tested on: UACC-62 melanoma
DMS 114 small cell lung = tested on: DMS 114 small cell lung
SK-OV-3 ovarian = tested on: SK-OV-3 ovarian
LXFL 529 NSCLC = tested on: LXFL 529 NSCLC
OVCAR-3 ovarian = tested on: OVCAR-3 ovarian
OVCAR-4 ovarian = tested on: OVCAR-4 ovarian
UACC-257 melanoma = tested on: UACC-257 melanoma
M19-MEL melanoma = tested on: M19-MEL melanoma
HL-60(TB) leukemia = tested on: HL-60(TB) leukemia
RXF 393 renal = tested on: RXF 393 renal
TK-10 renal = tested on: TK-10 renal
A498 renal = tested on: A498 renal
HOP-18 NSCLC = tested on: HOP-18 NSCLC

Measured: TGI

O=c1[nH]c2nc3ccccc3c(=O)n2nc1Cc1ccccc1
not listed: M19-MEL melanoma | HL-60(TB) leukemia | RXF 393 renal | TK-10 renal | A498 renal | HOP-18 NSCLC
> 100 µM: all other assays above

C=CCCC(O)c1cc(C)c(O)c(C)c1 (centres undefined)
not listed: DMS 273 small cell lung | SR leukemia | HCT-116 colon | CAKI-1 renal | DLD-1 colon | HT29 colon | OVCAR-4 ovarian
> 100 µM: all other assays above
